Results: patent publication US10040748B2, “4-hydroxybutyric acid analogs” (Concert Pharmaceuticals, Inc., priority 2011, dated 2018)
Counter-ions that a name gives are not always drawn.

Key:
[1] = In vivo pharmacokinetic studies in rats (IV and PO dosing, plasma); conditions: rat; for AUC0-∞ / CL / Vz / Cmax / Tmax: mean of N=4; for % F: 200 mg/kg PO vs IV, printed in AUC0-∞ column
Experimental: The pharmacokinetics of exemplary compounds was determined by comparison with 4-hydroxybutyric acid by dosing the compounds in rats according to the following study design and sampling procedure.

[2] = humans; cited from earlier work
[3] = 200 mg/kg PO, mean of N=4, Cmin at 4 hr
[4] = 200 mg/kg IV, mean of N=4, Cmin at 2 hr
[5] = 200 mg/kg IV, mean of N=4, calculated up to 2 hr
[6] = 200 mg/kg PO, mean of N=4, calculated up to 4 hr

O=C(O)CCCO [4-hydroxybutyric acid, sodium salt, sodium salt of 4-hydroxybutyric acid, reference compound]
concentration at 2 hr ([1]; plasma, 200 mg/kg IV, mean of N=4, Cmin at 2 hr): 8000 ng/mL | Cmin [1, 3]: 2000 ng/mL | half life [2]: 30 to 60 min

[2H]C([2H])(CCO)C(=O)[O-].[Na+] [Sodium 2,2-d2-4-Hydroxybutanoate]
AUC0-∞ ([1]; 200 mg/kg IV): 476 µg·h/mL | CL ([1]; 200 mg/kg IV): 7 mL/min/kg | Vz ([1]; 200 mg/kg IV): 0.2 L/kg | Cmin [1, 4]: 19000 ng/mL | t1/2 [1, 5]: 19.8 min | % F [1]: 41% | AUC0-∞ ([1]; 200 mg/kg PO): 193 µg·h/mL | Cmax ([1]; 200 mg/kg PO): 153000 ng/mL | Tmax ([1]; 200 mg/kg PO): 37.8 min | Cmin [1, 3]: 1000 ng/mL | t1/2 [1, 6]: 35.4 min | AUC0-∞ fold change (printed in brackets under the PO AUC) ([1]; 200 mg/kg PO, reference not given, apparently vs 4-hydroxybutyric acid, sodium salt): (+1.1X)

[2H]C([2H])(O)CC([2H])([2H])C(=O)[O-].[Na+] [IV-b, sodium salt, Sodium 2,2,4,4-d4-4-hydroxybutanoate]
AUC0-∞ ([1]; 200 mg/kg IV): 651 µg·h/mL | CL ([1]; 200 mg/kg IV): 5 mL/min/kg | Vz ([1]; 200 mg/kg IV): 0.3 L/kg | Cmin [1, 4]: 76000 ng/mL | t1/2 [1, 5]: 37.8 min | % F [1]: 40% | AUC0-∞ ([1]; 200 mg/kg PO): 260 µg·h/mL | Cmax ([1]; 200 mg/kg PO): 151000 ng/mL | Tmax ([1]; 200 mg/kg PO): 37.8 min | Cmin [1, 3]: 5000 ng/mL | t1/2 [1, 6]: 56.4 min | pharmacokinetics relative to 4-hydroxybutyric acid, sodium salt ([1]; 200 mg/kg, comparison of AUC0-∞ and t1/2): considerably increased
